From ChEMBL document CHEMBL1201862, “PubChem BioAssay data set” (2004)
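Cells were grown in 96-well plates and exposed to each compound for 48 hours at five concentrations; endpoints were interpolated linearly between bracketing concentrations, or set to the highest concentration if not reached. Abbreviation: GI50, concentration required for 50% inhibition of growth.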 Active and inactive are the calls of the source. Cut-off read from the data, not from the text of the source: active = GI50 up to about 1.1 µM and inactive = higher.

What was measured:
Assay in all cases: NCI tumour cell line growth inhibition, 48 h
OVCAR-5 = tested on: OVCAR-5
SN12C = tested on: SN12C
SF-539 = tested on: SF-539
SR = tested on: SR
MDA-N = tested on: MDA-N
NCI/ADR-RES = tested on: NCI/ADR-RES
BT-549 = tested on: BT-549
OVCAR-8 = tested on: OVCAR-8
A498 = tested on: A498
HOP-62 = tested on: HOP-62
MCF7 = tested on: MCF7
ACHN = tested on: ACHN
SW-620 = tested on: SW-620
OVCAR-4 = tested on: OVCAR-4
K562 = tested on: K562
HCT-116 = tested on: HCT-116
PC-3 = tested on: PC-3
RXF 393 = tested on: RXF 393
EKVX = tested on: EKVX
DU-145 = tested on: DU-145

Compound	GI50 (OVCAR-5)	GI50 (SN12C)	GI50 (SF-539)	GI50 (SR)	GI50 (MDA-N)	GI50 (NCI/ADR-RES)	GI50 (BT-549)	GI50 (OVCAR-8)	GI50 (A498)	GI50 (HOP-62)	GI50 (MCF7)	GI50 (ACHN)	GI50 (SW-620)	GI50 (OVCAR-4)	GI50 (K562)	GI50 (HCT-116)	GI50 (PC-3)	GI50 (RXF 393)	GI50 (EKVX)	GI50 (DU-145)
O=C(CCCN1CCC2(CC1)C(=O)NC(=O)N2c1ccccc1)c1ccc(F)cc1	> 100 µM (inactive)	> 100 µM (inactive)	> 100 µM (inactive)	> 100 µM (inactive)	> 100 µM (inactive)	> 100 µM (inactive)	> 100 µM (inactive)	> 100 µM (inactive)	> 100 µM (inactive)	> 100 µM (inactive)	> 100 µM (inactive)	> 100 µM (inactive)	> 100 µM (inactive)	> 100 µM (inactive)	> 10 µM (inactive)	> 100 µM (inactive)	> 100 µM (inactive)	> 100 µM (inactive)	> 100 µM (inactive)	> 100 µM (inactive)
CC(=O)O[C@H]1C(=O)[C@@]2(C)[C@H]([C@H](OC(=O)c3ccccc3)[C@]3(O)C[C@H](OC(=O)[C@H](O)[C@@H](NC(=O)c4ccccc4)c4ccc5ccccc5c4)C(C)=C1C3(C)C)[C@]1(OC(C)=O)CO[C@@H]1C[C@@H]2O	0.153 µM (active)	0.0681 µM (active)	0.0336 µM (active)	0.0239 µM (active)	0.0101 µM (active)	15.7 µM (inactive)	0.0807 µM (active)	0.091 µM (active)	0.467 µM (active)	0.0506 µM (active)	0.00966 µM (active)	1.51 µM (inactive)	0.0306 µM (active)	0.841 µM (active)	0.029 µM (active)	0.0266 µM (active)	0.0553 µM (active)	0.219 µM (active)	5.35 µM (inactive)	0.1 µM (active)
COc1cc2oc3c(c(=O)c2c(O)c1/C=C/C(C)C)CCC(C)(C)Oc1cc(O)ccc1-3	16.6 µM (inactive)	13.6 µM (inactive)	13.1 µM (inactive)	4.78 µM (inactive)	13 µM (inactive)	15.4 µM (inactive)	17.1 µM (inactive)	15.5 µM (inactive)	19.1 µM (inactive)	15.4 µM (inactive)	13.3 µM (inactive)	14.1 µM (inactive)	21.4 µM (inactive)	14.3 µM (inactive)	4.32 µM (inactive)	18.2 µM (inactive)	15.2 µM (inactive)	11.5 µM (inactive)	18.1 µM (inactive)	33.8 µM (inactive)
O=C(/C=C1\Nc2ccc([N+](=O)[O-])cc2N\C1=C/C(=O)c1ccc(F)cc1)c1ccc(F)cc1	> 100 µM (inactive)	90.2 µM (inactive)	19.6 µM (inactive)	16.8 µM (inactive)	> 100 µM (inactive)	82 µM (inactive)	31.1 µM (inactive)	> 100 µM (inactive)	19.6 µM (inactive)	7.35 µM (inactive)	52.8 µM (inactive)	13.9 µM (inactive)	> 100 µM (inactive)	> 100 µM (inactive)	22.2 µM (inactive)	32.5 µM (inactive)	> 100 µM (inactive)	17.9 µM (inactive)	45.9 µM (inactive)	> 100 µM (inactive)
COc1cc2c(cc1O)NC(=S)[C@@H]1CCCN1C2=O	> 100 µM (inactive)	> 100 µM (inactive)	> 100 µM (inactive)	50.1 µM (inactive)	> 100 µM (inactive)	> 100 µM (inactive)	> 100 µM (inactive)	> 100 µM (inactive)	> 100 µM (inactive)	> 100 µM (inactive)	> 100 µM (inactive)	> 100 µM (inactive)	> 100 µM (inactive)	> 100 µM (inactive)	> 100 µM (inactive)	> 100 µM (inactive)	> 100 µM (inactive)	> 100 µM (inactive)	> 100 µM (inactive)	> 100 µM (inactive)
O=C(N/N=C\c1cccc2ccccc12)Nc1ccc([N+](=O)[O-])cc1	19.7 µM (inactive)	18.5 µM (inactive)	8.05 µM (inactive)	> 27.6 µM (inactive)	19.1 µM (inactive)	13.9 µM (inactive)	20 µM (inactive)	7.64 µM (inactive)	2.66 µM (inactive)	17.9 µM (inactive)	9.51 µM (inactive)	11.6 µM (inactive)	29.6 µM (inactive)	8.04 µM (inactive)	5.58 µM (inactive)	6.28 µM (inactive)	6.95 µM (inactive)	7.13 µM (inactive)	> 39.4 µM (inactive)	15.3 µM (inactive)
CC1(C)Oc2ccc3c(=O)cc(-c4ccccc4)oc3c2C1C(=O)O (stereo not drawn)	> 100 µM (inactive)	> 100 µM (inactive)	> 100 µM (inactive)	> 100 µM (inactive)	> 100 µM (inactive)	> 100 µM (inactive)	> 100 µM (inactive)	> 100 µM (inactive)	> 100 µM (inactive)	> 100 µM (inactive)	> 100 µM (inactive)	–	–	> 100 µM (inactive)	> 100 µM (inactive)	> 100 µM (inactive)	> 100 µM (inactive)	> 100 µM (inactive)	> 100 µM (inactive)	> 100 µM (inactive)
